# From patent US4421912A, “Cephalosporin derivatives” (Takeda Chemical Industries, Ltd., priority 1973, dated 1983)
# Read-outs that look alike come from different tables or passages of the source.
# Tests used:
# [1] = test system: E. coli 0-111; assay: Antibacterial spectra, agar dilution method; assay type: cell-based
# Description: (§1) (mcg/ml., agar dilution method)
# as §1
# (§2) (mcg/ml, agar dilution method)
# (§3) (mcg./ml., agar dilution method)
# [2] = test system: E. coli NIHJ JC-2; assay: Antibacterial spectra, agar dilution method; assay type: cell-based; conditions: Escherichia coli
# Description: as §1, §1, §2, §3
# [3] = test system: S. aureus 1840; assay: Antibacterial spectra, agar dilution method; assay type: cell-based
# Description: as §1, §1, §2, §3
# [4] = test system: S. aureus 209P; assay: Antibacterial spectra, agar dilution method; assay type: cell-based; conditions: for MIC: Staphylococcus aureus, 209P
# Description: as §1, §1, §2, §3
# [5] = test system: E. coli T-7; assay: Antibacterial spectra, agar dilution method; assay type: cell-based; conditions: Escherichia coli
# Description: (§4) |(mcg./ml., agar dilution method)
# [6] = test system: P. vulgaris IFO 3988; assay: Antibacterial spectra, agar dilution method; assay type: cell-based; conditions: Proteus vulgaris
# Description: as §4
# [7] = test system: K. pneumoniae DT; assay: Antibacterial spectra, agar dilution method; assay type: cell-based; conditions: Klebsiella pneumoniae
# [8] = test system: P. morganii Eb53; assay: Antibacterial spectra, agar dilution method; assay type: cell-based; conditions: Morganella morganii
# Description: as §2, §3
# [9] = test system: Escherichia coli 0111; assay: Protective Effect on Infected Mice; assay type: in vivo; conditions: Escherichia coli, 0111, sc, 168 h, male ICR/SLC mice, i.p. E. coli 0111, single subcutaneous dose immediately after challenge, 7 days
# Description: Protective Effect (ED50 * , mg/kg) on Infected Mice
# *Test animals: male mice (ICR/SLC) 5 mice per group per single dose
# Infection: intraperitoneally with Escherichia coli 0111
# Administration: a single subcutaneous dose immediately after challenge
# Observation period: 7 days
# *Test animals: male mice (ICR/SLC) 5 mice per group single dose
# [10] = Escherichia coli, 0111, E. coli 0-111, Table 11
# [11] = NIHJJC2, E. coli NIHJ JC-2, Table 11, read-out: Antibacterial spectra
# [12] = Staphylococcus aureus, 1840, read-out: Antibacterial spectra, S. aureus 1840, Table 11
# [13] = read-out: Antibacterial spectra, S. aureus 209P, Table 11
# [14] = T7, E. coli T-7, agar dilution method, Table 11, read-out: Antibacterial spectra
# [15] = IFO3988, P. vulgaris IFO 3988, agar dilution method, Table 11, read-out: Antibacterial spectra
# [16] = P. morganii Eb53, agar dilution method, Table 11, read-out: Antibacterial spectra
# [17] = NIHJJC2, read-out: Antibacterial spectra, E. coli NIHJ JC-2, Table 11
# [18] = EB53, read-out: Antibacterial spectra
# [19] = T7, read-out: Antibacterial spectra
# [20] = Staphylococcus aureus, S. aureus 1840, Table 11, read-out: Antibacterial spectra
# [21] = Escherichia coli, 0111, E. coli 0-111, tables in the Examples
# [22] = Staphylococcus aureus, 1840, read-out: Antibacterial spectra, S. aureus 1840, tables in the Examples
# [23] = read-out: Antibacterial spectra, S. aureus 209P, tables in the Examples
SMILES,"MIC [1, 10] [µg/mL]","MIC [2, 11] [µg/mL]","MIC [3, 12] [µg/mL]","MIC [4, 13] [µg/mL]","MIC [5, 14] [µg/mL]","MIC [6, 15] [µg/mL]",MIC ([7]; Table 11) [µg/mL],"MIC [8, 16] [µg/mL]","MIC [2, 17] [µg/mL]","MIC [8, 18] [µg/mL]",further results
Cc1cnc(SCC2=C(C(=O)O)N3C(=O)C(NC(=O)Cc4csc(N)n4)C3SC2)nc1N (stereo not drawn) [Compound 32],0.78,1.56,1.56,0.2,50,0.78,0.39,100,,,
Nc1nc(CC(=O)NC2C(=O)N3C(C(=O)O)=C(CSc4nnc[nH]4)CSC23)cs1 (stereo not drawn) [Compound 41],0.78,,0.78,0.39,,,0.2,25,0.78,,
Nc1nc(CC(=O)NC2C(=O)N3C(C(=O)O)=C(CSc4nc(CC(=O)O)cs4)CSC23)cs1 (stereo not drawn) [Compound 30],0.39,1.56,1.56,0.39,100,0.2,< 0.05,50,,,
"CC(=O)OCCSc1nnc(SCC2=C(C(=O)[O-])N3C(=O)C(NC(=O)Cc4csc(N)n4)[C@H]3SC2)s1.[Na+] (stereo partly drawn) [Compound 11, sodium 7-[2-(2-aminothiazol-4-yl)acetamido]-3-[2-(2-acetoxyethylthio)-1,3,4-thiadiazol-5-yl]thiomethyl-3-cephem-4-carboxylate]",,,,,,,,,,,"ED50 ([9]; Table 12, read-out: Protective Effect (ED50) on Infected Mice): < 0.625 mg/kg"
NC(=O)Cn1nnnc1SCC1=C(C(=O)O)N2C(=O)C(NC(=O)Cc3csc(N)n3)C2SC1 (stereo not drawn) [Compound 29],≤ 0.2,,1.56,0.78,3.13,≤ 0.2,≤ 0.2,,0.39,≤ 0.2,
"Nc1nc(CC(=O)NC2C(=O)N3C(C(=O)[O-])=C(CSc4nnc(SCCO)s4)CS[C@H]23)cs1.[Na+] (stereo partly drawn) [Compound 6, sodium 7-[2-(2-aminothiazol-4-yl)acetamido]-3-[2-(2-hydroxyethylthio)1,3,4-thiadiazol-5-yl)thiomethyl-3-cephem-4-carboxylate]",≤ 0.2,,0.78,≤ 0.2,,0.39,≤ 0.2,,0.78,6.25,"MIC [5, 19]: 12.5 µg/mL"
Nc1nc(CC(=O)NC2C(=O)N3C(C(=O)O)=C(CSc4nnc(NCCS(=O)(=O)O)s4)CSC23)cs1 (stereo not drawn) [Compound 22],≤ 0.2,,,0.78,25,≤ 0.2,≤ 0.2,,0.78,0.78,"MIC [3, 20]: 3.13 µg/mL"
Cn1nnnc1SCC1=C(C(=O)O)N2C(=O)C(NC(=O)Cc3csc(=S)[nH]3)C2SC1 (stereo not drawn) [Compound 64],1.56,,1.56,< 0.78,,,< 0.78,,,,
"Cc1nnc(SCC2=C(C(=O)O)N3C(=O)C(NC(=O)Cc4csc(=O)[nH]4)[C@H]3SC2)s1 (stereo partly drawn) [Compound 55, 7-[2-(2-oxo-4-thiazolin-4-yl)acetamido]-3-(5-methyl-1,3,4-thiadiazol-2-yl)thiomethyl-3-cephem-4-carboxylic acid]",0.78,1.56,0.78,0.2,,,1.56,,,,
Nc1nc(CC(=O)NC2C(=O)N3C(C(=O)O)=C(CSc4nnc(N)s4)CSC23)cs1 (stereo not drawn) [Compound 4],0.1,,0.78,0.2,100,0.2,0.2,50,0.78,,
CC(=O)CSc1nnc(SCC2=C(C(=O)O)N3C(=O)C(NC(=O)Cc4csc(N)n4)C3SC2)s1 (stereo not drawn) [Compound 23],0.39,1.56,0.78,≤ 0.2,25,0.39,≤ 0.2,3.13,,,
Cc1csc(SCC2=C(C(=O)O)N3C(=O)C(NC(=O)Cc4csc(N)n4)C3SC2)n1 (stereo not drawn) [Compound 47],0.78,1.56,0.78,≤ 0.2,,0.39,0.39,,,,"MIC [5, 19]: 12.5 µg/mL"
CS(=O)(=O)Cc1nnc(SCC2=C(C(=O)O)N3C(=O)C(NC(=O)Cc4csc(N)n4)C3SC2)s1 (stereo not drawn) [Compound 25],≤ 0.2,,0.78,0.39,100,0.39,≤ 0.2,25,0.39,,
"O=C(Cc1csc(=O)[nH]1)NC1C(=O)N2C(C(=O)O)=C(CSc3nncs3)CS[C@H]12 (stereo partly drawn) [Example 4, 7-[2-(2-oxo-4-thiazolin-4-yl)acetamido]-3-(1,3,4-thiadiazol-2-yl)thiomethyl-3-cephem-4-carboxylic acid]",,,,,,,,,,,"MIC [1, 21]: 1.56 µg/mL; MIC [3, 22]: < 0.78 µg/mL; MIC [4, 23]: < 0.78 µg/mL; MIC ([7]; tables in the Examples): 1.56 µg/mL"
CN(C)CC(=O)Nc1nnc(SCC2=C(C(=O)O)N3C(=O)C(NC(=O)Cc4csc(N)n4)C3SC2)s1 (stereo not drawn) [Compound 7],≤ 0.2,,,0.78,25,0.39,≤ 0.2,,0.78,12.5,"MIC [3, 20]: 3.13 µg/mL"
"Cn1nnnc1SCC1=C(C(=O)O)N2C(=O)C(NC(=O)Cc3csc(=O)[nH]3)[C@H]2SC1 (stereo partly drawn) [Example 2, 7-[2-(2-oxo-4-thiazolin-4-yl)acetamido]-3-(1-methyltetrazol-5-yl)thiomethyl-3-cephem-4-carboxylic acid]",,,,,,,,,,,"MIC [1, 21]: < 0.78 µg/mL; MIC ([2]; NIHJJC2, read-out: Antibacterial spectra, E. coli NIHJ JC-2, tables in the Examples): < 0.78 µg/mL; MIC [3, 22]: < 0.78 µg/mL; MIC [4, 23]: < 0.78 µg/mL; MIC ([7]; tables in the Examples): < 0.78 µg/mL"
Cn1c(N)nnc1SCC1=C(C(=O)O)N2C(=O)C(NC(=O)Cc3csc(N)n3)C2SC1 (stereo not drawn) [Compound 31],≤ 0.1,,1.56,0.78,3.13,0.2,≤ 0.1,,0.2,1.56,
Cn1ccnc1SCC1=C(C(=O)O)N2C(=O)C(NC(=O)Cc3csc(N)n3)C2SC1 (stereo not drawn) [Compound 44],0.39,,1.56,0.39,,0.39,0.39,,0.78,,"MIC [5, 19]: 6.25 µg/mL"
"CC(=O)OCC1=C(C(=O)[O-])N2C(=O)C(NC(=O)Cc3csc(=S)[nH]3)[C@H]2SC1.[Na+] (stereo partly drawn) [Example 21, sodium 7-[2-(2-thioxo-4-thiazolin-4-yl)-acetamido]-3-acetoxymethyl-3-cephem-4-carboxylate]",,,,,,,,,,,"Antibacterial spectra ([3]; S. aureus 1840, tables in the Examples): 1.56 µg/mL; Antibacterial spectra ([4]; S. aureus 209P, tables in the Examples): < 0.78 µg/mL"
"CN(C)C(=O)Cc1nnc(SCC2=C(C(=O)[O-])N3C(=O)C(NC(=O)Cc4csc(N)n4)[C@H]3SC2)s1.[Na+] (stereo partly drawn) [Compound 8, sodium 7-[2-(2-aminothiazol-4-yl)acetamido]-3-[2-(N,N-dimethylcarbamoylmethyl)-1,3,4-thiadiazol-5-yl]thiomethyl-3-cephem-4-carboxylate]",≤ 0.2,,0.78,0.39,,,≤ 0.2,,0.78,< 0.2,"MIC [5, 19]: 12.5 µg/mL; MIC ([6]; IFO3988, read-out: Antibacterial spectra): 0.39 µg/mL"
CN(C)CCn1nnnc1SCC1=C(C(=O)O)N2C(=O)C(NC(=O)Cc3csc(N)n3)C2SC1 (stereo not drawn) [Compound 28],≤ 0.2,,1.56,0.39,3.13,0.78,≤ 0.2,,0.39,≤ 0.2,
Nc1nc(CC(=O)NC2C(=O)N3C(C(=O)O)=C(CSc4nnc(C(F)(F)F)s4)CSC23)cs1 (stereo not drawn) [Compound 45],0.78,3.13,0.78,≤ 0.2,25,0.78,0.78,,,,
Cc1nnc(SCC2=C(C(=O)O)N3C(=O)C(NC(=O)Cc4csc(N)n4)C3SC2)o1 (stereo not drawn) [Compound 38],0.39,1.56,0.78,0.39,,,0.39,25,,,
Cc1nnc(SCC2=C(C(=O)O)N3C(=O)C(NC(=O)Cc4csc(N)n4)C3SC2)n1C (stereo not drawn) [Compound 42],0.1,,1.56,0.39,,,0.1,,0.2,1.56,"ED50 ([9]; Table 14, read-out: ED50): 0.38 mg/kg"
CSCc1nnc(SCC2=C(C(=O)O)N3C(=O)C(NC(=O)Cc4csc(N)n4)C3SC2)s1 (stereo not drawn) [Compound 24],0.39,1.56,0.78,≤ 0.2,25,0.39,≤ 0.2,25,,,
